{
  "source": "patent US20210063414A1",
  "about": "“METHODS FOR PREVENTING AND/OR TREATING BONE LOSS CONDITIONS BY MODULATING IRISIN” (Dana-Farber Cancer Institute, Inc., priority 2018, published 2021)",
  "tested_on": "sclerostin",
  "experiment": "Irisin injection in mice: sclerostin mRNA in osteocyte-enriched bones and plasma sclerostin protein (ELISA)",
  "format": "in vivo",
  "settings": "co-injection of 1 mg/kg inhibitor with irisin",
  "protocol": "8 weeks old mice were injected daily with indicated dose of irisin for 6 days. […] were collected and treated with collagenase to yield osteocyte-enriched bones. Sclerostin mRNA level from osteocyte-enriched tibia was analyzed by qPCR (FIG. 7A). Cyclophilin was used as a house-keeping gene. Plasma was collected to analyze the circulating sclerostin protein level by ELISA assay (FIG. 7B). Data are represented as mean±SEM. For FIG. 7A and FIG. 7B, n=5 animals/group. * indicates p<0.05, and *** indicates p<0.001.\nCertain materials and methods were used to generate the results described herein. For example, the data shown in FIG. 1A resulted from MLO-Y4 (an osteocyte-like cell line) cells treated with the indicated concentration of irisin and hydrogen peroxide for 4 hours. Cells were stained with Hoechst 33342 (ThermoFisher Scientific, catalog number H3570) and Eth-D1 (ThermoFisher Scientific, catalog number E1169) and analyzed to determine the percentage of cell death using ImageJ. […] Co-precipitated irisin was analyzed by immunoblot analysis against flag tag (Sigma Aldrich, catalog number A8592). The data shown in FIGS. 5A and 5B were generated from MLO-Y4 cells treated and analyzed as in the experiments used to generate the data shown in FIG. 2D, except that pre-treatment of 100 nM RGDS (FIG. 5A) or echistatin (R & D Systems Inc., catalog number 3202/100U) (FIG. 5B) for 10 minutes was performed before irisin treatment. […] RNAs were extracted from the cells and the sclerostin mRNA level was analyzed by qPCR (FIG. 6A) or treated and analyzed as in (FIG. 6A), except that pre-treatment of 10 μM RGDS, RGDyK (Selleck, catalog number S7844), or echistatin was performed for 10 minutes before irisin treatment. […] Sclerostin mRNA level was analyzed by qPCR (FIG. 7A). […] Epididymal fats were collected, RNAs were extracted from the tissues, and mRNA levels of the indicated genes were analyzed by qPCR. […]",
  "data": [
    {"smiles": "N=C(N)NCCC[C@@H]1NC(=O)[C@H](CCCCN)NC(=O)[C@@H](Cc2ccc(O)cc2)NC(=O)[C@H](CC(=O)O)NC(=O)CNC1=O", "note": "[cyclo RGDyK]", "values": [
      {"measurement": "effect on irisin-induced gene expression of sclerostin in osteocyte-enriched bones", "result": "prevented"},
      {"measurement": "effect on irisin-induced sclerostin protein level in plasma", "result": "prevented"}
    ]}
  ]
}
